# Measurements reported in BigSolDB 2.1.
smiles,measurement,setting,value
CN1CCN(C2=Nc3cc(Cl)ccc3Nc3ccccc32)CC1,solubility (mole fraction),"in 2-ethoxyethanol, 278.15 K",0.0358
same,solubility (mole fraction),"in 2-ethoxyethanol, 283.15 K",0.0391
same,solubility (mole fraction),"in 2-ethoxyethanol, 288.15 K",0.0415
same,solubility (mole fraction),"in 2-ethoxyethanol, 293.15 K",0.0442
same,solubility (mole fraction),"in 2-ethoxyethanol, 298.15 K",0.0476
same,solubility (mole fraction),"in 2-ethoxyethanol, 303.15 K",0.0499
same,solubility (mole fraction),"in 2-ethoxyethanol, 308.15 K",0.053
same,solubility (mole fraction),"in 2-ethoxyethanol, 313.15 K",0.0566
same,solubility (mole fraction),"in 2-ethoxyethanol, 318.15 K",0.0612
same,solubility (mole fraction),"in 2-ethoxyethanol, 323.15 K",0.0666
same,solubility (mole fraction),"in 2-methoxyethanol, 278.15 K",0.0326
same,solubility (mole fraction),"in 2-methoxyethanol, 283.15 K",0.0349
same,solubility (mole fraction),"in 2-methoxyethanol, 288.15 K",0.0366
same,solubility (mole fraction),"in 2-methoxyethanol, 293.15 K",0.0393
same,solubility (mole fraction),"in 2-methoxyethanol, 298.15 K",0.0422
same,solubility (mole fraction),"in 2-methoxyethanol, 303.15 K",0.0451
same,solubility (mole fraction),"in 2-methoxyethanol, 308.15 K",0.048
same,solubility (mole fraction),"in 2-methoxyethanol, 313.15 K",0.0508
same,solubility (mole fraction),"in 2-methoxyethanol, 318.15 K",0.0546
same,solubility (mole fraction),"in 2-methoxyethanol, 323.15 K",0.0596
same,solubility (mole fraction),"in 2-propoxyethanol, 278.15 K",0.042
same,solubility (mole fraction),"in 2-propoxyethanol, 283.15 K",0.0443
same,solubility (mole fraction),"in 2-propoxyethanol, 288.15 K",0.0463
same,solubility (mole fraction),"in 2-propoxyethanol, 293.15 K",0.0499
same,solubility (mole fraction),"in 2-propoxyethanol, 298.15 K",0.0521
same,solubility (mole fraction),"in 2-propoxyethanol, 303.15 K",0.0548
same,solubility (mole fraction),"in 2-propoxyethanol, 308.15 K",0.0581
same,solubility (mole fraction),"in 2-propoxyethanol, 313.15 K",0.0612
same,solubility (mole fraction),"in 2-propoxyethanol, 318.15 K",0.0637
same,solubility (mole fraction),"in 2-propoxyethanol, 323.15 K",0.0679
same,solubility (mole fraction),"in ethanol, 278.15 K",0.00466
same,solubility (mole fraction),"in ethanol, 283.15 K",0.00535
same,solubility (mole fraction),"in ethanol, 288.15 K",0.00581
same,solubility (mole fraction),"in ethanol, 293.15 K",0.0064
same,solubility (mole fraction),"in ethanol, 298.15 K",0.0072
same,solubility (mole fraction),"in ethanol, 303.15 K",0.0081
same,solubility (mole fraction),"in ethanol, 308.15 K",0.00917
same,solubility (mole fraction),"in ethanol, 313.15 K",0.0105
same,solubility (mole fraction),"in ethanol, 318.15 K",0.012
same,solubility (mole fraction),"in ethanol, 323.15 K",0.0134
same,solubility (mole fraction),"in ethyl acetate, 278.15 K",0.00895
same,solubility (mole fraction),"in ethyl acetate, 283.15 K",0.01
same,solubility (mole fraction),"in ethyl acetate, 288.15 K",0.0114
same,solubility (mole fraction),"in ethyl acetate, 293.15 K",0.0128
same,solubility (mole fraction),"in ethyl acetate, 298.15 K",0.0146
same,solubility (mole fraction),"in ethyl acetate, 303.15 K",0.016
same,solubility (mole fraction),"in ethyl acetate, 308.15 K",0.0181
same,solubility (mole fraction),"in ethyl acetate, 313.15 K",0.0203
same,solubility (mole fraction),"in ethyl acetate, 318.15 K",0.0233
same,solubility (mole fraction),"in ethyl acetate, 323.15 K",0.0265
same,solubility (mole fraction),"in methyl acetate, 278.15 K",0.00616
same,solubility (mole fraction),"in methyl acetate, 283.15 K",0.00707
same,solubility (mole fraction),"in methyl acetate, 288.15 K",0.00797
same,solubility (mole fraction),"in methyl acetate, 293.15 K",0.0094
same,solubility (mole fraction),"in methyl acetate, 298.15 K",0.0108
same,solubility (mole fraction),"in methyl acetate, 303.15 K",0.0124
same,solubility (mole fraction),"in methyl acetate, 308.15 K",0.0142
same,solubility (mole fraction),"in methyl acetate, 313.15 K",0.0164
same,solubility (mole fraction),"in methyl acetate, 318.15 K",0.0188
same,solubility (mole fraction),"in methyl acetate, 323.15 K",0.022
same,solubility (mole fraction),"in n-butanol, 278.15 K",0.00644
same,solubility (mole fraction),"in n-butanol, 283.15 K",0.00761
same,solubility (mole fraction),"in n-butanol, 288.15 K",0.00853
same,solubility (mole fraction),"in n-butanol, 293.15 K",0.00972
same,solubility (mole fraction),"in n-butanol, 298.15 K",0.0112
same,solubility (mole fraction),"in n-butanol, 303.15 K",0.0129
same,solubility (mole fraction),"in n-butanol, 308.15 K",0.0145
same,solubility (mole fraction),"in n-butanol, 313.15 K",0.0164
same,solubility (mole fraction),"in n-butanol, 318.15 K",0.0192
same,solubility (mole fraction),"in n-butanol, 323.15 K",0.0217
same,solubility (mole fraction),"in n-butyl acetate, 278.15 K",0.0121
same,solubility (mole fraction),"in n-butyl acetate, 283.15 K",0.0136
same,solubility (mole fraction),"in n-butyl acetate, 288.15 K",0.0147
same,solubility (mole fraction),"in n-butyl acetate, 293.15 K",0.0164
same,solubility (mole fraction),"in n-butyl acetate, 298.15 K",0.0182
same,solubility (mole fraction),"in n-butyl acetate, 303.15 K",0.02
same,solubility (mole fraction),"in n-butyl acetate, 308.15 K",0.0228
same,solubility (mole fraction),"in n-butyl acetate, 313.15 K",0.0255
same,solubility (mole fraction),"in n-butyl acetate, 318.15 K",0.0276
same,solubility (mole fraction),"in n-butyl acetate, 323.15 K",0.0314
same,solubility (mole fraction),"in n-pentanol, 278.15 K",0.00737
same,solubility (mole fraction),"in n-pentanol, 283.15 K",0.00904
same,solubility (mole fraction),"in n-pentanol, 288.15 K",0.0107
same,solubility (mole fraction),"in n-pentanol, 293.15 K",0.0121
same,solubility (mole fraction),"in n-pentanol, 298.15 K",0.0135
same,solubility (mole fraction),"in n-pentanol, 303.15 K",0.0152
same,solubility (mole fraction),"in n-pentanol, 308.15 K",0.0177
same,solubility (mole fraction),"in n-pentanol, 313.15 K",0.0203
same,solubility (mole fraction),"in n-pentanol, 318.15 K",0.0234
same,solubility (mole fraction),"in n-pentanol, 323.15 K",0.0264
same,solubility (mole fraction),"in n-pentyl acetate, 278.15 K",0.0131
same,solubility (mole fraction),"in n-pentyl acetate, 283.15 K",0.0143
same,solubility (mole fraction),"in n-pentyl acetate, 288.15 K",0.0162
same,solubility (mole fraction),"in n-pentyl acetate, 293.15 K",0.0176
same,solubility (mole fraction),"in n-pentyl acetate, 298.15 K",0.0198
same,solubility (mole fraction),"in n-pentyl acetate, 303.15 K",0.0221
same,solubility (mole fraction),"in n-pentyl acetate, 308.15 K",0.024
same,solubility (mole fraction),"in n-pentyl acetate, 313.15 K",0.0269
same,solubility (mole fraction),"in n-pentyl acetate, 318.15 K",0.0298
same,solubility (mole fraction),"in n-pentyl acetate, 323.15 K",0.0334
same,solubility (mole fraction),"in n-propanol, 278.15 K",0.00577
same,solubility (mole fraction),"in n-propanol, 283.15 K",0.00645
same,solubility (mole fraction),"in n-propanol, 288.15 K",0.00734
same,solubility (mole fraction),"in n-propanol, 293.15 K",0.0083
same,solubility (mole fraction),"in n-propanol, 298.15 K",0.00928
same,solubility (mole fraction),"in n-propanol, 303.15 K",0.0109
same,solubility (mole fraction),"in n-propanol, 308.15 K",0.0123
same,solubility (mole fraction),"in n-propanol, 313.15 K",0.0148
same,solubility (mole fraction),"in n-propanol, 318.15 K",0.0168
same,solubility (mole fraction),"in n-propanol, 323.15 K",0.019
same,solubility (mole fraction),"in n-propyl acetate, 278.15 K",0.0114
same,solubility (mole fraction),"in n-propyl acetate, 283.15 K",0.0128
same,solubility (mole fraction),"in n-propyl acetate, 288.15 K",0.014
same,solubility (mole fraction),"in n-propyl acetate, 293.15 K",0.0157
same,solubility (mole fraction),"in n-propyl acetate, 298.15 K",0.0174
same,solubility (mole fraction),"in n-propyl acetate, 303.15 K",0.0194
same,solubility (mole fraction),"in n-propyl acetate, 308.15 K",0.0219
same,solubility (mole fraction),"in n-propyl acetate, 313.15 K",0.0246
same,solubility (mole fraction),"in n-propyl acetate, 318.15 K",0.027
same,solubility (mole fraction),"in n-propyl acetate, 323.15 K",0.0305
